US20120121591A1 (priority 2009, published 2012)

Tests used:
Type in all cases: cell-based
hKv1.3 = hKv1.3 (Homo sapiens, UniProt P22001); assay: cell-based; conditions: Kv1.3 (IWQ) IC50 (nM, Avg)
[1] = system: IL-2 secretion from T cells in human whole blood; conditions: read-out: WB (IL-2) IC50 (nM, Avg)
[2] = system: IFN-g secretion from T cells in human whole blood; conditions: read-out: WB (IFNg) IC50 (nM, Avg)

hKv1.3, sequence (P22001 whole entry): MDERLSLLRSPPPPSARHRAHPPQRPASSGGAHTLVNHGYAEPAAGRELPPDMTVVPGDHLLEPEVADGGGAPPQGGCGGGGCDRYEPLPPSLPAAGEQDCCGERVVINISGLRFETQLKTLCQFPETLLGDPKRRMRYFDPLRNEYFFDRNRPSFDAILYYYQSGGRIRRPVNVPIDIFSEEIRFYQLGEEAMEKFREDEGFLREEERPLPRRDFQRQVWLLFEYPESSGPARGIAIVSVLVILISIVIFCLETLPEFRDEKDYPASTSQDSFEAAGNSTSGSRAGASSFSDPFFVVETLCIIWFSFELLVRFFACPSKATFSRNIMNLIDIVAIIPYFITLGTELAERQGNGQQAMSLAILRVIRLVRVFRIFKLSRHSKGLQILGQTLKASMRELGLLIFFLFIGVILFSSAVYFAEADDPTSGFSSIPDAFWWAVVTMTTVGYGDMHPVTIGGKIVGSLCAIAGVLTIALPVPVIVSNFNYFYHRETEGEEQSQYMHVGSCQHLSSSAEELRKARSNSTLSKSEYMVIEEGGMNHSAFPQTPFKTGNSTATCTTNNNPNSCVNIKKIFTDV

Row | SMILES | IC50 (hKv1.3) | IC50 [1] | IC50 [2]
1 | CCCC[C@@H]1NC(=O)[C@H](CO)NC(=O)[C@H](Cc2c[nH]cn2)NC(=O)[C@H](CCCCN)NC(=O)[C@@H]2CSSC[C@@H]3NC(=O)[C@H]([C@@H](C)O)NC(=O)[C@H](CCCCN)NC(=O)[C@H](CCCNC(=N)N)NC(=O)[C@H](CSSC[C@H](NC(=O)[C@H](CCCNC(=N)N)NC(=O)[C@H](CO)NC(=O)[C@H](CCCCN)NC(=O)[C@@H]4CCCN4C(=O)[C@H]([C@@H](C)CC)NC(=O)[C@H]([C@@H](C)O)NC(=O)[C@H](CC(=O)O)NC(=O)[C@H]([C@@H](C)CC)NC(=O)[C@@H](NC(=O)[C@H](CO)NC(=O)[C@@H](N)CCCNC(=N)N)CSSC[C@@H](C(N)=O)NC(=O)[C@H]([C@@H](C)O)NC(=O)CNC3=O)C(=O)N[C@@H]([C@@H](C)O)C(=O)N[C@@H](C)C(=O)N[C@@H](Cc3ccccc3)C(=O)N[C@@H](CCC(N)=O)C(=O)N2)NC(=O)[C@H](Cc2ccccc2)NC(=O)[C@H](CO)NC(=O)[C@H](CC(C)C)NC(=O)[C@H](CCCNC(=N)N)NC(=O)[C@H](Cc2ccc(O)cc2)NC(=O)[C@H](CCCCN)NC1=O [[Nle21]ShK-amide] | 0.04 nM | 0.325 nM | 1.13 nM
2 | CC[C@H](C)[C@@H]1NC(=O)[C@@H](NC(=O)[C@H](CO)NC(=O)[C@@H](N)CCCNC(=N)N)CSSC[C@@H](C(=O)O)NC(=O)[C@H]([C@@H](C)O)NC(=O)CNC(=O)[C@@H]2CSSC[C@@H]3NC(=O)[C@H](CCC(N)=O)NC(=O)[C@H](Cc4ccccc4)NC(=O)[C@H](C)NC(=O)[C@H]([C@@H](C)O)NC(=O)[C@H](CSSC[C@H](NC(=O)[C@H](Cc4ccccc4)NC(=O)[C@H](CO)NC(=O)[C@H](CC(C)C)NC(=O)[C@H](CCCNC(=N)N)NC(=O)[C@H](Cc4ccc(O)cc4)NC(=O)[C@H](CCCCN)NC(=O)[C@H](CCSC)NC(=O)[C@H](CO)NC(=O)[C@H](Cc4c[nH]cn4)NC(=O)[C@H](CCCCN)NC3=O)C(=O)N[C@@H](CCCNC(=N)N)C(=O)N[C@@H](CCCCN)C(=O)N[C@@H]([C@@H](C)O)C(=O)N2)NC(=O)[C@H](CCCNC(=N)N)NC(=O)[C@H](CO)NC(=O)[C@H](CCCCN)NC(=O)[C@@H]2CCCN2C(=O)[C@H](C)NC(=O)[C@H]([C@@H](C)O)NC(=O)[C@H](CC(=O)O)NC1=O [[Ala7]ShK] | 0.188 nM | 0.886 nM | 2.22 nM
3 | CC[C@H](C)[C@@H]1NC(=O)[C@@H](NC(=O)[C@H](CO)NC(=O)[C@@H](N)CCCNC(=N)N)CSSC[C@@H](C(N)=O)NC(=O)[C@H]([C@@H](C)O)NC(=O)CNC(=O)[C@@H]2CSSC[C@@H]3NC(=O)[C@H](CCCCN)NC(=O)[C@H](Cc4ccccc4)NC(=O)[C@H](C)NC(=O)[C@H]([C@@H](C)O)NC(=O)[C@H](CSSC[C@H](NC(=O)[C@H](Cc4ccccc4)NC(=O)[C@H](CO)NC(=O)[C@H](CC(C)C)NC(=O)[C@H](CCCNC(=N)N)NC(=O)[C@H](Cc4ccc(O)cc4)NC(=O)[C@H](CCCCN)NC(=O)[C@H](Cc4ccc(O)cc4)NC(=O)[C@H](CO)NC(=O)[C@H](Cc4c[nH]cn4)NC(=O)[C@H](CCCCN)NC3=O)C(=O)N[C@@H](CCCNC(=N)N)C(=O)N[C@@H](CCCCN)C(=O)N[C@@H]([C@@H](C)O)C(=O)N2)NC(=O)[C@H](CCCNC(=N)N)NC(=O)[C@H](CO)NC(=O)[C@H](CCCCN)NC(=O)[C@@H]2CCCN2C(=O)[C@H]([C@@H](C)CC)NC(=O)[C@H]([C@@H](C)O)NC(=O)[C@H](CC(=O)O)NC1=O [[Lys16, Tyr21]ShK-amide] | 0.246 nM | 2.83 nM | 3.19 nM
4 | CC[C@H](C)[C@@H]1NC(=O)[C@@H](NC(=O)[C@H](CO)NC(=O)[C@@H](N)CCCNC(=N)N)CSSC[C@@H](C(N)=O)NC(=O)[C@H]([C@@H](C)O)NC(=O)CNC(=O)[C@@H]2CSSC[C@@H]3NC(=O)[C@H](CCCCN)NC(=O)[C@H](Cc4ccccc4)NC(=O)[C@H](C)NC(=O)[C@H]([C@@H](C)O)NC(=O)[C@H](CSSC[C@H](NC(=O)[C@H](Cc4ccccc4)NC(=O)[C@H](CO)NC(=O)[C@H](CC(C)C)NC(=O)[C@H](CCCNC(=N)N)NC(=O)[C@H](Cc4ccc(O)cc4)NC(=O)[C@H](CCCCN)NC(=O)[C@H](CC(=O)O)NC(=O)[C@H](CO)NC(=O)[C@H](Cc4c[nH]cn4)NC(=O)[C@H](CCCCN)NC3=O)C(=O)N[C@@H](CCCNC(=N)N)C(=O)N[C@@H](CCCCN)C(=O)N[C@@H]([C@@H](C)O)C(=O)N2)NC(=O)[C@H](CCCNC(=N)N)NC(=O)[C@H](CO)NC(=O)[C@H](CCCCN)NC(=O)[C@@H]2CCCN2C(=O)[C@H]([C@@H](C)CC)NC(=O)[C@H]([C@@H](C)O)NC(=O)[C@H](CC(=O)O)NC1=O [[Lys16, Asp21]ShK-amide] | 0.35 nM | 2.31 nM | 3.63 nM
5 | CC[C@H](C)[C@@H]1NC(=O)[C@@H](NC(=O)[C@H](CO)NC(=O)[C@@H](N)CCCNC(=N)N)CSSC[C@@H](C(=O)O)NC(=O)[C@H]([C@@H](C)O)NC(=O)CNC(=O)[C@@H]2CSSC[C@@H]3NC(=O)[C@H](CCC(N)=O)NC(=O)[C@H](Cc4ccccc4)NC(=O)[C@H](C)NC(=O)[C@H]([C@@H](C)O)NC(=O)[C@H](CSSC[C@H](NC(=O)[C@H](Cc4ccccc4)NC(=O)[C@H](CO)NC(=O)[C@H](CC(C)C)NC(=O)[C@H](CCCNC(=N)N)NC(=O)[C@H](Cc4ccc(O)cc4)NC(=O)[C@H](CCCCN)NC(=O)[C@H](CCSC)NC(=O)[C@H](CO)NC(=O)[C@H](Cc4c[nH]cn4)NC(=O)[C@H](CCCCN)NC3=O)C(=O)N[C@@H](CCCNC(=N)N)C(=O)N[C@@H](CCCCN)C(=O)N[C@@H]([C@@H](C)O)C(=O)N2)NC(=O)[C@H](CCCNC(=N)N)NC(=O)[C@H](CO)NC(=O)[C@H](CCCCN)NC(=O)[C@@H]2CCCN2C(=O)[C@H](Cc2cccc3ccccc23)NC(=O)[C@H]([C@@H](C)O)NC(=O)[C@H](CC(=O)O)NC1=O [[1-Nal7]ShK] | 0.699 nM | 11.6 nM | 18 nM
6 | CCCC[C@@H]1NC(=O)[C@H](CO)NC(=O)[C@H](Cc2c[nH]cn2)NC(=O)[C@H](CCCCN)NC(=O)[C@@H]2CSSC[C@@H]3NC(=O)[C@H]([C@@H](C)O)NC(=O)[C@H](CCCNC(=N)N)NC(=O)[C@H](CCCNC(=N)N)NC(=O)[C@H](CSSC[C@H](NC(=O)[C@H](CCCNC(=N)N)NC(=O)[C@H](CO)NC(=O)[C@H](CCCCN)NC(=O)[C@@H]4CCCN4C(=O)[C@H]([C@@H](C)CC)NC(=O)[C@H]([C@@H](C)O)NC(=O)[C@H](CC(=O)O)NC(=O)[C@H](CCC(=O)O)NC(=O)[C@@H](NC(=O)[C@H](CO)NC(=O)[C@@H](N)CCCNC(=N)N)CSSC[C@@H](C(N)=O)NC(=O)[C@H]([C@@H](C)O)NC(=O)CNC3=O)C(=O)N[C@@H]([C@@H](C)O)C(=O)N[C@@H](C)C(=O)N[C@@H](C)C(=O)N[C@@H](CCCCN)C(=O)N2)NC(=O)[C@H](Cc2ccccc2)NC(=O)[C@H](CO)NC(=O)[C@H](CC(C)C)NC(=O)[C@H](CCCNC(=N)N)NC(=O)[C@H](Cc2ccc(O)cc2)NC(=O)[C@H](CCCCN)NC1=O [[Glu4,Ala15,Lys16,Nle21, Arg30]ShK-amide] | 0.118 nM | 0.647 nM | 0.816 nM
7 | CC[C@H](C)[C@@H]1NC(=O)[C@@H](NC(=O)[C@H](CO)NC(=O)[C@@H](N)CCCNC(=N)N)CSSC[C@@H](C(=O)N[C@@H](C)C(=O)O)NC(=O)[C@H]([C@@H](C)O)NC(=O)CNC(=O)[C@@H]2CSSC[C@@H]3NC(=O)[C@H](CCCCN)NC(=O)[C@H](Cc4ccccc4)NC(=O)[C@H](C)NC(=O)[C@H]([C@@H](C)O)NC(=O)[C@H](CSSC[C@H](NC(=O)[C@H](Cc4ccccc4)NC(=O)[C@H](CO)NC(=O)[C@H](CC(C)C)NC(=O)[C@H](CCCNC(=N)N)NC(=O)[C@H](Cc4ccc(O)cc4)NC(=O)[C@H](CCCCN)NC(=O)[C@H](CC(N)=O)NC(=O)[C@H](CO)NC(=O)[C@H](Cc4c[nH]cn4)NC(=O)[C@H](CCCCN)NC3=O)C(=O)N[C@@H](CCCNC(=N)N)C(=O)N[C@@H](CCCCN)C(=O)N[C@@H]([C@@H](C)O)C(=O)N2)NC(=O)[C@H](CCCNC(=N)N)NC(=O)[C@H](CO)NC(=O)[C@H](CCCCN)NC(=O)[C@@H]2CCCN2C(=O)[C@H]([C@@H](C)CC)NC(=O)[C@H]([C@@H](C)O)NC(=O)[C@H](CC(=O)O)NC1=O [[Lys16,Asn21]ShK-Ala] | 33 nM | 0.891 nM | 0.693 nM
8 | CC[C@H](C)[C@@H]1NC(=O)[C@@H](NC(=O)[C@H](CO)NC(=O)[C@@H](N)CCCNC(=N)N)CSSC[C@@H](C(=O)O)NC(=O)[C@H]([C@@H](C)O)NC(=O)CNC(=O)[C@@H]2CSSC[C@@H]3NC(=O)[C@H](CCC(N)=O)NC(=O)[C@H](Cc4ccccc4)NC(=O)[C@H](C)NC(=O)[C@H]([C@@H](C)O)NC(=O)[C@H](CSSC[C@H](NC(=O)[C@H](Cc4cccc5ccccc45)NC(=O)[C@H](CO)NC(=O)[C@H](CC(C)C)NC(=O)[C@H](CCCNC(=N)N)NC(=O)[C@H](Cc4ccc(O)cc4)NC(=O)[C@H](CCCCN)NC(=O)[C@H](CCSC)NC(=O)[C@H](CO)NC(=O)[C@H](Cc4c[nH]cn4)NC(=O)[C@H](CCCCN)NC3=O)C(=O)N[C@@H](CCCNC(=N)N)C(=O)N[C@@H](CCCCN)C(=O)N[C@@H]([C@@H](C)O)C(=O)N2)NC(=O)[C@H](CCCNC(=N)N)NC(=O)[C@H](CO)NC(=O)[C@H](CCCCN)NC(=O)[C@@H]2CCCN2C(=O)[C@H]([C@@H](C)CC)NC(=O)[C@H]([C@@H](C)O)NC(=O)[C@H](CC(=O)O)NC1=O [[1-Nal27]ShK] | 0.144 nM | 1.07 nM | 2.84 nM
9 | CC[C@H](C)[C@@H]1NC(=O)[C@@H](NC(=O)[C@H](CO)NC(=O)[C@@H](N)CCCNC(=N)N)CSSC[C@@H](C(=O)O)NC(=O)[C@H]([C@@H](C)O)NC(=O)CNC(=O)[C@@H]2CSSC[C@@H]3NC(=O)[C@H](CCCCN)NC(=O)[C@H](Cc4ccccc4)NC(=O)[C@H](C)NC(=O)[C@H]([C@@H](C)O)NC(=O)[C@H](CSSC[C@H](NC(=O)[C@H](Cc4ccccc4)NC(=O)[C@H](CO)NC(=O)[C@H](CC(C)C)NC(=O)[C@H](CCCNC(=N)N)NC(=O)[C@H](Cc4ccc(O)cc4)NC(=O)[C@H](CCCCN)NC(=O)[C@H](CCSC)NC(=O)[C@H](CO)NC(=O)[C@H](Cc4c[nH]cn4)NC(=O)[C@H](CCCCN)NC3=O)C(=O)N[C@@H](CCCCN)C(=O)N[C@@H](CCCCN)C(=O)N[C@@H]([C@@H](C)O)C(=O)N2)NC(=O)[C@H](CCCNC(=N)N)NC(=O)[C@H](CO)NC(=O)[C@H](CCCCN)NC(=O)[C@@H]2CCCN2C(=O)[C@H]([C@@H](C)CC)NC(=O)[C@H]([C@@H](C)O)NC(=O)[C@H](CC(=O)O)NC1=O [[Lys16, Lys29]ShK] | 0.071 nM | 0.112 nM | 0.143 nM
